Results as given in patent US12441754B2, “Galactoside inhibitor of galectins” (GALECTO BIOTECH AB, priority 2019, dated 2025).
Like-named read-outs stand apart in the source and are kept apart here.

What was measured:
Galectin-1 [1] = biological target: T1, Galectin-1 (Homo sapiens, UniProt P09382); details: T. Delaine 2016; read-out: affinity to Galectin-1; cited from earlier work
galectins = tested on: T2, galectins; details: cited from earlier work
T2 construct: Kd, all galectins; other: compared with lactose

[2] = CACO-2 model of uptake over the human intestine; assay type: in vitro ADME; details: human, Caco-2
Excerpt: (§1) For some compounds of this invention wherein R^1 of formula 1 is an alkylated hydroxy, for example —OCH3 high uptake and no efflux is observed in a CACO-2 model of uptake ver the human intestine. That predicts high likeliness of high human oral bioavailability.

CACO-2 = CACO-2 model of uptake over the human intestine; assay type: in vitro ADME; details: result in words
Excerpt: as §1

Galectin-3 = Galectin-3 (Homo sapiens, UniProt P17931); experiment: fluorescence anisotropy assay, compound as inhibitor of galectin / fluorescein tagged saccharide probe interaction; assay type: binding
Excerpt: (§2) Anal. Biochem. 334: 36-47, (Sörme et al., 2004) and Monovalent interactions of Galectin-1 By Salomonsson, Emma; Larumbe, Amaia; Tejler, Johan; Tullberg, Erik; Rydberg, Hanna; Sundin, Anders; Khabut, Areej; Frejd, Torbjorn; Lobsanov, Yuri D.; Rini, James M.; et al, From Biochemistry (2010), 49(44), 9518-9532, (Salomonsson et al., 2010).

Galectin-1 [3] = biological target: T1, Galectin-1; experiment: as above; assay type: binding
Excerpt: as §2

T1 sequence (P09382 whole entry): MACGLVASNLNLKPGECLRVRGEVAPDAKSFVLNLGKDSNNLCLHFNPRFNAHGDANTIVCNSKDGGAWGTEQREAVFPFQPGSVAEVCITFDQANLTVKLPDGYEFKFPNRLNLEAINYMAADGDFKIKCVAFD
Sequence of Galectin-3 (P17931 whole entry): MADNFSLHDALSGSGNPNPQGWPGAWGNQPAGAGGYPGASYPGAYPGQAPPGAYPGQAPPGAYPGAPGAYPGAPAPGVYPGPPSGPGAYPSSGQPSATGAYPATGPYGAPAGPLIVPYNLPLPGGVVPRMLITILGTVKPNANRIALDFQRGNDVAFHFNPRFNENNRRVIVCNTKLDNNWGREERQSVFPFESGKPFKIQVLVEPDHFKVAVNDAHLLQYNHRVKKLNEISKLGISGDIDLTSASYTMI

Structure (SMILES) | Kd (Galectin-3) [µM] | Kd (Galectin-1 [3]) [µM] | other results
OCC1O[C@@H](SC2O[C@H](CO)C(O)C(n3cc(-c4ccsc4)nn3)[C@H]2O)C(O)C(n2cc(-c3ccsc3)nn2)[C@H]1O (some centres unmarked) | – | – | Kd (Galectin-1 [1]): < 0.01 µM
O=C[C@H](O)[C@@H](O)[C@@H](O)[C@H](O)CO [D-galactose] | – | – | affinity relative to lactose (times lower) (galectins; compared with lactose): 50-100 times
CO[C@@H]1[C@@H](n2cc(-c3nccs3)nn2)[C@@H](O)[C@@H](CO)O[C@@H]1Sc1cc(Cl)c(F)c(Cl)c1 [Example 1, 3,5-Dichloro-4-fluorophenyl 3-deoxy-2-O-methyl-3-[4-(2-thiazolyl)-1H-1,2,3-triazol-1-yl]-1-thio-α-D-galactopyranoside] | 8 | – | Papp A→B ([2]; A>B, read-out: Papp from the apical to the basolateral side (A>B)): 20 ×10⁻⁶ cm/s; Papp B→A ([2]; B>A, read-out: Papp from the basolateral to the apical side B>A): 28 ×10⁻⁶ cm/s; uptake and efflux in CACO-2 model (CACO-2): the uptake is very high and virtually no efflux is observed; Kd (Galectin-1 [3]; read-out: Galectin-1 Kd): 0.175 µM
CO[C@@H]1[C@@H](n2cc(-c3nc(Cl)cs3)nn2)[C@@H](O)[C@@H](CO)O[C@@H]1Sc1cnc2ncsc2c1 [Example 101, Thiazolo[4,5-b]pyridin-6-yl 3-[4-(4-chlorothiazol-2-yl)-1H-1,2,3-triazol-1-yl]-3-deoxy-2-O-methyl-1-thio-α-D-galactopyranoside] | 0.4 | 0.11 | –
CO[C@@H]1[C@@H](n2cc(-c3nc(Cl)cs3)nn2)[C@@H](O)[C@@H](CO)O[C@@H]1Sc1cncc(SC)c1 [Example 102, 5-Methylsulfanylpyridin-3-yl 3-[4-(4-chlorothiazol-2-yl)-1H-1,2,3-triazol-1-yl]-3-deoxy-2-O-methyl-1-thio-α-D-galactopyranoside] | 0.42 | 0.19 | –
CO[C@@H]1[C@@H](n2cc(-c3nc(Cl)cs3)nn2)[C@@H](O)[C@@H](CO)O[C@@H]1Sc1cncc(SC(F)(F)F)c1 [Example 103, 5-(Trifluoromethylsulfanyl)pyridin-3-yl 3-[4-(4-chlorothiazol-2-yl)-1H-1,2,3-triazol-1-yl]-3-deoxy-2-O-methyl-1-thio-α-D-galactopyranoside] | 1 | 0.33 | –
OC[C@H]1O[C@@H](O[C@H]2[C@H](O)[C@@H](O)C(O)O[C@@H]2CO)[C@H](O)[C@@H](O)[C@H]1O (some centres unmarked) [lactose] | – | – | Kd (galectins; read-out: Kd, all galectins): 100 to 1000 µM
